Measurements reported in patent US20060009478A1, “Methods for the treatment of back pain” (priority 2003, published 2006).
Read-outs that look alike come from different tables or passages of the source.

System: patients with moderate to severe chronic pain due to osteoarthritis of the hip or knee
[1] = Week 1, Days 1-3: 10 mg OXY/d, Days 4-8: 20 mg OXY/d

Procedure: During the 3-week treatment period, patients recorded their PI every 24 hours in their daily diary immediately before their bedtime dose. In addition, patients recorded adverse events and date/time of taking the study medication in the daily diary. Patients returned to the clinic on Week 2, Day 1; Week 3, Day 1 and for End of Treatment assessments (±one day) by the investigator. At each clinic visit, the investigator also collected, additional data, including quality of analgesia, pain control, the SF-12 Health Survey, the WOMAC Osteoarthritis Index and a global assessment of study medication. Patients were required to return for a post-treatment follow-up visit approximately one week after the final dose of study medication (±two days).
Adverse events reported were mapped to preferred terms and organ systems using the MedDRA mapping system. Adverse events were associated with weeks according to their onset date. The number and percentage of patients reporting each event were summarized by treatment group and week.
Treatment groups were examined for differences in the incidence and severity of selected opioid-associated adverse events, including constipation, dizziness, somnolence, headache, pruritus, nausea, vomiting, urinary retention, and bradypnoea.

For `COc1ccc2c3c1O[C@H]1C(=O)CC[C@@]4(O)[C@@H](C2)N(C)CC[C@]314` [OXY QID, oxycodone], the “Adverse event Constipation, % of patients” value [1] was 12.7%, the “Adverse event Constipation, number of patients” value [1] was 13 and the “Adverse event Dizziness, % of patients” value [1] was 16.7%. For the same molecule, the “Adverse event Dizziness, number of patients” value [1] was 17, the “Adverse event Dry Mouth, % of patients” value [1] was 5.9% and the “Adverse event Dry Mouth, number of patients” value [1] was 6. The “Adverse event Fatigue, % of patients” value [1] was 2.9%, the “Adverse event Fatigue, number of patients” value [1] was 3 and the “Adverse event Headache, % of patients” value [1] was 16.7%. For the same molecule, the “Adverse event Headache, number of patients” value [1] was 17, the “Adverse event Nausea, % of patients” value [1] was 23.5% and the “Adverse event Nausea, number of patients” value [1] was 24. For the same molecule, the “Adverse event Pruritus, % of patients” value [1] was 7.8%, the “Adverse event Pruritus, number of patients” value [1] was 8 and the “Adverse event Sommolence, % of patients” value [1] was 15.7%. The “Adverse event Sommolence, number of patients” value [1] was 16, the “Adverse event Vomiting, % of patients” value [1] was 3.9% and the “Adverse event Vomiting, number of patients” value [1] was 4. The “Adverse event Constipation, % of patients” value (Week 2, 30 mg OXY/d) was 7.1%, the “Adverse event Constipation, number of patients” value (Week 2, 30 mg OXY/d) was 6 and the “Adverse event Dizziness, % of patients” value (Week 2, 30 mg OXY/d) was 11.8%. The “Adverse event Dizziness, number of patients” value (Week 2, 30 mg OXY/d) was 10, the “Adverse event Dry Mouth, % of patients” value (Week 2, 30 mg OXY/d) was 4.7% and the “Adverse event Dry Mouth, number of patients” value (Week 2, 30 mg OXY/d) was 4. The “Adverse event Fatigue, % of patients” value (Week 2, 30 mg OXY/d) was 0.0%, the “Adverse event Fatigue, number of patients” value (Week 2, 30 mg OXY/d) was 0 and the “Adverse event Headache, % of patients” value (Week 2, 30 mg OXY/d) was 3.5%. For the same molecule, the “Adverse event Headache, number of patients” value (Week 2, 30 mg OXY/d) was 3, the “Adverse event Nausea, % of patients” value (Week 2, 30 mg OXY/d) was 14.1% and the “Adverse event Nausea, number of patients” value (Week 2, 30 mg OXY/d) was 12. The “Adverse event Pruritus, % of patients” value (Week 2, 30 mg OXY/d) was 5.9%, the “Adverse event Pruritus, number of patients” value (Week 2, 30 mg OXY/d) was 5 and the “Adverse event Sommolence, % of patients” value (Week 2, 30 mg OXY/d) was 7.1%. For the same molecule, the “Adverse event Sommolence, number of patients” value (Week 2, 30 mg OXY/d) was 6, the “Adverse event Vomiting, % of patients” value (Week 2, 30 mg OXY/d) was 3.5% and the “Adverse event Vomiting, number of patients” value (Week 2, 30 mg OXY/d) was 3. For the same molecule, the “Adverse event Constipation, % of patients” value (Week 3, 40 mg OXY/d) was 2.7%, the “Adverse event Constipation, number of patients” value (Week 3, 40 mg OXY/d) was 2 and the “Adverse event Dizziness, % of patients” value (Week 3, 40 mg OXY/d) was 5.3%. The “Adverse event Dizziness, number of patients” value (Week 3, 40 mg OXY/d) was 4, the “Adverse event Dry Mouth, % of patients” value (Week 3, 40 mg OXY/d) was 0.0% and the “Adverse event Dry Mouth, number of patients” value (Week 3, 40 mg OXY/d) was 0. For the same molecule, the “Adverse event Headache, % of patients” value (Week 3, 40 mg OXY/d) was 8.0%, the “Adverse event Headache, number of patients” value (Week 3, 40 mg OXY/d) was 6 and the “Adverse event Nausea, number of patients” value (Week 3, 40 mg OXY/d) was 8. The “Adverse event Pruritus, % of patients” value (Week 3, 40 mg OXY/d) was 4.0%, the “Adverse event Pruritus, number of patients” value (Week 3, 40 mg OXY/d) was 3 and the “Adverse event Sommolence, % of patients” value (Week 3, 40 mg OXY/d) was 2.7%. For the same molecule, the “Adverse event Sommolence, number of patients” value (Week 3, 40 mg OXY/d) was 2, the “Adverse event Vomiting, % of patients” value (Week 3, 40 mg OXY/d) was 12.0% and the “Adverse event Vomiting, number of patients” value (Week 3, 40 mg OXY/d) was 9. For the same molecule, the “Patients who discontinued treatment because of adverse events (number)” value (of the 360 patients who received study drug, 3-week treatment) was 29.
